In US10105426B2, “Immunostimulatory combinations” (TRUSTEES OF DARTMOUTH COLLEGE, priority 2002, dated 2018):

Columns and labels:
Assay type in all cases: in vivo, C57BL6 mice
[1] = system: ovalbumin-specific CD8^+ T cells; assay: Expansion of ovalbumin-specific CD8+ T cells after i.v. immunization with ovalbumin peptide (Example 1, MHC tetramer flow cytometry of spleen cells); settings: 100 μg ovalbumin peptide + 100 μg 1C10 anti-CD40 antibody + 200 μg IRM1 i.v., day 5, combination vs either agonist alone
Description: Unless otherwise indicated, mice used in the following examples are C57BL6 mice, available from Charles River Laboratories, Inc., Wilmington, Mass.
MHC tetrameric reagent was prepared using a eukaryotic (Baculovirus) expression system as follows/described in Kedl et al., JEM 192(8):1105-1113 (2000).
2-5 Mice were immunized intravenously with (A) 100 μg ovalbumin peptide, (B) 100 μg ovalbumin peptide+100 μg anti-CD40 antibody (1C10), (C) 100 μg ovalbumin peptide+200 μg IRM1, or (D) 100 μg ovalbumin peptide+100 μg 1C10 anti-CD40 antibody+200 μg IRM1. At five days after the immunizations, the spleens were removed from the mice and homogenized. The homogenized cell suspension was stained with a major histocompatibility complex (MHC) tetrameric reagent for detecting ovalbumin-specific T cells (Kedl et al., JEM 192(8):1105-1113 (2000)), a CD8 stain (BD Biosciences Pharmingen, San Diego, Calif.), and a CD44 stain (BD Biosciences Pharmingen, San Diego, Calif.). When subjected to flow cytometry, ovalbumin-specific CD8^+ T cells are shown in the upper right quadrant of the dot plots shown in FIG. 1.

[2] = system: ovalbumin-specific CD8^+ T cells; assay: Expansion kinetics of ovalbumin-specific CD8+ T cells after i.p. immunization with whole ovalbumin (Example 2); settings: 5 mg ovalbumin + 50 μg FGK4.5 anti-CD40 antibody + 220 μg IRM1 i.p.; spleen, days 4-12
Description: Mice were intraperitoneally injected with 5 mg ovalbumin (Sigma Chemical Co., St. Louis, Mo.), 50 μg FGK4.5 anti-CD40 antibody, and 220 μg IRM1. Mice were sacrificed on each of days four, five, six, nine, and twelve. The spleens were removed from the sacrificed mice and homogenized. The homogenized cell suspensions were stained and analyzed as described in Example 1. When subjected to flow cytometry, ovalbumin-specific CD8^+ T cells (top) and ovalbumin-specific CD8^+/CD44+ T cells (bottom) were identified and are shown in the upper right quadrant of each dot plot. The numbers in the upper right quadrant indicate the percentage of cells in that quadrant.

[3] = system: TRP2-ΔV-specific CD8^+ T cells; assay: Expansion of TRP2-ΔV-specific CD8+ T cells after i.v. immunization (Example 3); settings: 100 μg FGK4.5 + 200 μg IRM1 + 100 μg TRP2-ΔV peptide i.v.; spleen, day 5
Description: Mice were immunized intravenously with 100 μg FGK4.5 anti-CD40 antibody+200 μg IRM1 and either (A) no peptide, (B) 100 μg ovalbumin peptide, or (C) 100 μg TRP2-ΔV peptide. At five days after the immunizations, the spleens were removed from the mice and homogenized. The homogenized cell suspension was stained as in Example 1, except that the MHC tetramer reagent was prepared for detecting TRP2-ΔV-specific T cells. When subjected to flow cytometry, TRP2-ΔV-specific CD8^+ T cells are shown in the upper right quadrant of the dot plots shown in FIG. 3. The numbers in the upper right quadrant indicate the percentage of cells in that quadrant.

CD8^+ memory T cells = assay: Generation and re-activation of CD8+ memory T cells (Example 4); settings: day 0: 100 μg ovalbumin peptide + 200 μg IRM1 + 100 μg 1C10 i.v.; challenge day 28 with peptide or peptide + 200 μg IRM1; analysis day 33
Description: Mice were immunized intravenously on day 0 with 100 μg ovalbumin peptide+200 μg IRM 1+100 μg of 1C10 anti-CD40 antibody. On day 28, the mice were either (A) left unchallenged, (B) challenged intravenously with 100 μg ovalbumin peptide, or (C) challenged intravenously with 100 μg ovalbumin peptide+200 μg IRM1. On day 33, the mice were sacrificed, the spleens removed and spleen cells homogenized. The homogenized cells were stained and analyzed as described in Example 1.

[4] = system: melanoma B16ova tumor cells; assay: Tumor growth after melanoma B16ova challenge, immunization with ovalbumin peptide (Example 6); settings: B16ova intradermal day 0; immunization day 7 with 100 μg ovalbumin peptide + 200 μg IRM + 100 μg 1C10; measured day 21
Description: Mice were challenged intradermally on day 0 with 1×10^5 melanoma B16ova tumor cells in PBS (Kedl et al. PNAS 98(19):10811-10816). On day 7, the mice were immunized with either (A) 100 μg ovalbumin peptide, (B) 100 μg ovalbumin peptide+200 μg IRM1, or (C) 100 μg ovalbumin peptide+200 μg IRM1+100 μg 1C10 anti-CD40 antibody. On day 21, the mice were sacrificed and the tumors were measured in two dimensions by caliper.
Mice also were challenged as described above, and immunized as described above except that IRM2 was substituted for IRM1.

[5] = system: melanoma B16ova tumor cells; assay: Tumor growth after melanoma B16ova challenge, immunization with tumor lysate (Example 7); settings: B16ova day 0; immunization day 7 with 1×10^6 CE tumor lysate ± 200 μg IRM1 ± 100 μg FGK4.5; measured days 14 and 20
Description: Mice were challenged with tumor on day 0 as in example 6. 5 mice each were immunized on days 7 with 1×10^6 cell equivalents (CE) (A) tumor lysate, (B) 1×10^6 CE tumor lysate+200 μg IRM1, (C) 1×10^6 CE tumor lysate+100 μg FGK4.5 anti-CD40 antibody, or (D)1×10^6 CE tumor lysate+200 μg IRM1+100 μg FGK4.5 anti-CD40 antibody. Tumor sizes were measured on the mice by caliper on days 14 and 20.

CD8^+ T cells [6] = assay: CD8+ T cell expansion with IRM1 and different TNF/R agonists (Example 9); settings: 1 mg ovalbumin + 200 μg IRM1 + 200 μg TNF/R agonist; spleen, day 6
Description: Mice were immunized on day 0 with 1 mg ovalbumin, 200 μg IRM1, and either 200 μg CD40 ligand (FGK4.5), 200 μg 4-1BB ligand (anti-mouse 4-1BB antibody, clone 17B3, eBioscience, San Diego, Calif.), or no TNF/R agonist (control).

CD8^+ T cells [7] = assay: CD8+ T cell expansion with CD40 agonist and different IRM compounds (Example 8); settings: 500 μg ovalbumin + 50 μg FGK4.5 + IRM (500 μg IRM3, 200 μg IRM4, 800 μg IRM5, 800 μg IRM2) i.p.; spleen, day 6; n=3
Description: Mice were intraperitoneally injected on day 0 with 500 μg ovalbumin, 50 μg CD40 agonist (FGK4.5), and either 500 μg IRM3, 200 μg IRM4, 800 μg IRM5, 800 μg IRM2, or no IRM (control).

In the case of Cc1nc2c(N)nc3ccccc3c2n1CC(C)(C)O [IRM1, 4-amino-α,α,2-trimethyl-1H-imidazo[4,5-c]quinolin-1-ethanol], the “Expansion of the ovalbumin-specific CD8^+ T cell population” value [1] is reported as “greater than the expansion of the ovalbumin-specific CD8^+ T cell populations after stimulation with either the anti-CD40 antibody or IRM alone”, the “CD8^+ T cell expansion (ovalbumin-specific)” value [2] is reported as “synergistic effect on CD8^+ T cell expansion” and the “Expansion of antigen-specific (TRP2-ΔV) CD8^+ T cells” value [3] is reported as “synergistic expansion of antigen-specific CD8^+ T cells”. For the same compound, the “Generation and re-activation of CD8^+ memory T cells” value (CD8^+ memory T cells) was “generates a pool of long-lived CD8^+ memory T cells that can be reactivated by treatment with IRM and the antigen”, the “Tumor growth (tumor size by caliper)” value [4] was “slower tumor growth than immunization with IRM alone” and the “Tumor growth (tumor size by caliper)” value [5] was “slower tumor growth than immunization with IRM alone or CD40 agonist alone”. The “Expansion of CD8^+ T cells” value (CD8^+ T cells [6]) was “Synergistic expansion of CD8^+ T cells”.

In the case of COCCc1nc2c(N)nc3ccccc3c2n1CCOCCN(C)C(=O)N1CCOCC1 [IRM2, N-(2-{2-[4-amino-2-(2-methoxyethyl)-1H-imidazo[4,5-c]quinolin-1-yl]ethoxy}ethyl)-N-methylmorpholine-4-carboxamide], the “Expansion of CD8^+ T cells” value (CD8^+ T cells [7]) is reported as “Synergistic expansion of CD8^+ T cells”.

For CCOCc1nc2c(N)nc3ccccc3c2n1CC(C)(C)N [IRM3, 1-(2-amino-2-methylpropyl)-2-(ethoxymethyl)-1H-imidazo[4,5-c]quinolin-4-amine], the “Expansion of CD8^+ T cells” value (CD8^+ T cells [7]) was “Synergistic expansion of CD8^+ T cells”.

For CCc1nc2c(N)nc3ccccc3c2n1CCCCNS(C)(=O)=O [IRM4, N-[4-(4-amino-2-ethyl-1H-imidazo[4,5-c]quinolin-1-yl)butyl]-methanesulfonamide], the “Expansion of CD8^+ T cells” value (CD8^+ T cells [7]) was “Synergistic expansion of CD8^+ T cells”.

In the case of CCCc1nc2c(N)nc3ccccc3c2n1CCCCNS(C)(=O)=O [IRM5, N-[4-(4-amino-2-propyl-1H-imidazo[4,5-c]quinolin-1-yl)butyl]-methanesulfonamide], the “Expansion of CD8^+ T cells” value (CD8^+ T cells [7]) is reported as “Synergistic expansion of CD8^+ T cells”.
